In US20060078584A1, “Multi-functional oxidizing composition” (priority 2004, published 2006):
Where two headings read alike, the source gives them in different places.

Columns and labels:
[1] = cited from earlier work
[2] = Storage stability of dry blends (ambient and accelerated aging in humid oven); assay type: physicochemical; settings: one month
Description: In all examples, active oxidant concentrations are expressed in weight percent and are determined by standard iodometric titration as described in the “OXONE Monopersulfate Compound Technical Information” Bulletin, No. H-42434-5, dated April 2000, published by E. I. du Pont de Nemours and Company.
A weighed sample (0.05-0.30 g) to be analyzed is dissolved in cold deionized water (<10° C., about 50 mL), treated with potassium iodide solution (10 mL 25% aqueous), acidified (10 mL 20% sulfuric acid), and titrated with standardized 0.1N sodium thiosulfate reagent to an endpoint visualized by a starch indicator. The total active oxidant content (active oxygen+active halogen) is expressed as percent active oxygen (% AO) and is calculated as follows: % AO=(0.8×Volume of titrant, mL)(Normality of titrant)/(Sample Weight, g).
OXONE monopersulfate compound (180 g, 90 wt. %) and anhydrous sodium dichloro-s-triazinetrione (20 g, 10 wt. %) were dry blended in a 250-ml high-density poly(propylene (HDPE) bottle. The mixture was placed on a laboratory roll mill for two hours to ensure complete blending of the components. The blended product was then divided into two portions. One portion was stored at ambient conditions (22±2° C., 55±5% relative humidity [RH]); the other in a humid oven at 50±2° C., 80±5% RH denoted as “accelerated aging”). Both portions were stored in sealed screw-cap HDPE bottles. Both samples were monitored on a weekly basis for one month to assess physical integrity and active oxidant loss. […]. […].

[3] = Solubility in water and in acidic potassium monopersulfate solution; settings: in a 20% potassium monopersulfate solution, pH of about 1.2
[4] = accelerated aging, 50° C., 80% RH
[5] = accelerated aging, 50±2° C., 80±5% RH, sealed HDPE containers

## CC1(C)C(=O)N(Cl)C(=O)N1Cl [dichlorodimethylhydantion, 1,3-dichloro-5,5-dimethylhydantoin]
[1]
  Solubility in water: 0.2 g/100 g water

## O=c1nc([O-])n(Cl)c(=O)n1Cl.[Na+] [Comparative Example E, Anhydrous sodium dichloro-s-triazinetrione]
[2]; [4]
  Active oxidant retention / loss: acceptable active oxidant stability
  Chlorine odor / halogen evolution: characteristic chlorine odor
  Flowability: good flowability
[2]; [5]
  Chlorine Odor (degree 0-5): 3
  Flowability: Free-flowing
[2]; total oxidant (active oxygen + active halogen) remaining after accelerated storage, 50° C., 80% RH
  Total % AO Remaining (%): 93%
[1]; neutral pH (about pH 6-7), 25° C.
  Solubility in water: about 24 g/100 g H2O
[3]
  Solubility: about 1 g/100 mL

## CC1(C)C(=O)N(Br)C(=O)N1Br [dibromodimethylhydantion, 1,3-dibromo-5,5-dimethylhydantoin]
[1]
  Solubility in water: 0.25 g/100 g water

## CC1(C)C(=O)N(Br)C(=O)N1Cl [bromochlorodimethylhydantion, 3-bromo-1-chloro-5,5-dimethylhydantoin]
[1]
  Solubility in water: 0.2 g/100 g water
